The values that follow come from patent US6235771A, “Anilide derivative, production and use thereof” (Takeda Chemical Industries, Ltd., priority 1998, dated 2001).

In one assay the target is T1, human CCR5 (Homo sapiens, UniProt P51681).
T1 construct: expressed in transfected cells; host or cells: CHO-K1 cells, electroporated with plasmid pCKR5 (pcDNA3.1 backbone), geneticin-selected (CHO/CCR5)
Kind of assay: Inhibition of [125I]-RANTES binding to human CCR5 in CHO/CCR5 cells (CCR5 antagonistic activity). Particulars: Test Compound 1 μM, 100 pM [125I]-RANTES, room temperature, 40 minutes, read-out: Inhibition Rate (CCR5 binding). The method, then: Cloning of CCR5 gene was carried out by PCR (polymerase chain reaction) from human spleen cDNA. With using 0.5 ng of spleen cDNA (Toyobo, QUICK-Clone cDNA) as template, PCR was performed in DNA Thermal Cycler 480 (Perkin-Elmer) (reaction conditions: 30 cycles of 95° C. for 1 minute, 60° C. for 1 minute, and 75° C. for 5 minutes) by adding primer set, 5'-[…]-3' (25 pmol) and 5'-[…]-3' (25 pmol), which were designed referring to nucleotide sequence of CCR5 gene reported by Samson et al. (Biochemistry, 35(11), 3362-3367 (1996)) and by using TaKaRa EX Taq (TakaraShuzo). The resultant PCR product was subjected to agarose gel. electrophoresis to collect about 1.0 kb DNA fragment, which was subjected to Original TA Cloning Kit (Funakoshi) to carry out cloning of CCR5 gene.
The plasmid obtained in the above (1) was digested with restriction enzymes XbaI (Takara Shuzo) and BamHI (Takara Shuzo) and subjected to agarose gel electrophoresis to collect about 1.0 kb DNA fragment. The DNA fragment was mixed with plasmid pcDNA3.1 (Funakoshi) for expression in animal cells, said plasmid being digested with XbaI and BamHI, and they were ligated with DNA Ligation Kit Ver.2 (Takara Shuzo). The resulting plasmid was subjected to transformation of competent cell of E. coli JM109 (Takara Shuzo) to obtain plasmid pCKR5.
CHO-K1 cells were grown in 750 ml of tissue culture flask (Becton Dickinson) using Ham's F12 medium (Nihon Pharmaceutical) containing 10% fetal calf serum (Life Tech Oriental) and took off with 0.5 g/L trypsin-0.2 g/L EDTA (Life Tech Oriental). The cells were washed with PBS (Life Tech Oriental), centrifuged (1000 rpm, 5 minutes), and suspended in PBS. With using Gene Pulser (Bio-Rad Laboratories), DNA was introduced into the cells under the conditions shown below. That is, to the cuvette of 0.4 cm gap were added 8×10^6 cells and 10 μg of plasmid pCKR5 for expression of human CCR5, and electroporation was carried out under 0.25 kV of voltage and 960 μF of capacitance. The cells were transferred into Ham's F12 medium (Nihon Pharmaceutical) containing 10% fetal calf serum, and cultivated for 24 hours. The cells were again took off and centrifuged, and suspended in Ham's F12 medium (Nihon Pharmaceutical) containing 10% fetal calf serum and 500 μg/ml of geneticin (Life Tech Oriental). The suspension was diluted to give 10^4 cells/ml of the suspension, which was inoculated on 96 well plate (Becton Dickinson) to give geneticin resistant cells. The resulting geneticin resistant cells were cultivated in 96 well plate (Becton Dickinson), and cells expressing CCR5 were selected from the geneticin resistant cells. That is, in assay buffer (Ham's F12 medium containing 0.5% BSA and 20 mM HEPES (Wako Pure Chemical, pH7.2) to which was added 200 pM of [^125 I]-RANTES (Amersham) as ligand, binding reaction was carried out at room temperature for 40 minutes, and the buffer was washed with cooled PBS. To the buffer was added 50 μl/well of 1M NaOH, and the mixture was stirred. Radioactivity was determined with γ-counter to select CHO/CCR5 cells which specifically bind to the ligand.
The CHO/CCR5 were inoculated on 96 well microplate (5×10^4 cells/well) and cultivated for 24 hours. The medium was removed by means of suction, and to each well was added assay buffer containing Test Compound (1 μM) and then 100 pM of [^125 I]-RANTES (Amersham) as ligand. Binding assay was carried out at room temperature for 40 minutes, and assay buffer was removed by means of suction. Each well was washed twice with cooled PBS, and 200 μl of Microscint-20 (Packard Instrument, Inc.) was added to each well. Radio-activity was determined with Top-Count Micro Scintillation Counter (Packard Instrument, Inc.).
According to the method described above, inhibition rate of Test Compound (whose number is referred to in the following Examples) to CCR5 binding.

Another assay deals with HIV-1 BA-L. Put plainly: Inhibitory effect on HIV-1 infection to MAGI-CCR5 cell (β-galactosidase activity). The format is cell-based. The note with it: 100 μl of medium containing 1.6 μM Test Compound plus 100 μl of medium containing 300PFU HIV-1 BA-L; MAGI-CCR5 cells; 37° C., 2 days. The method, then: The plasmid where β-galactosidase gene was ligated downstream of HIV-1 LTR was introduced into CD4 positive HeLa cell, to which human CCR5 was further introduced to obtain transformant MAGI-CCR5. By using said transformant MAGI-CCR5, degree of HIV-1 infection was calculated from β-galactosidase activity (blue color due to decomposition of 5-bromo-4-chloro-3-indolyl-β-D-galactopyranoside). Specifically, MAGI-CCR5 cells were suspended in DMEM medium containing 10% serum to prepare 5×10^4 cells/ml suspension. To each well of 96 well plate was inoculated 200 μl of the suspension, and the cells were cultivated at 37° C. overnight. The medium was removed by means of suction, and to the residue was added 100 μl of the above medium containing 1.6 μM of Test Compound and 100 μl of the above medium containing 300PFU of HIV-1 BA-L cells. The cells were cultivated at 37° C. for 2 days. The medium was removed by means of suction. To the residue was added 200 μl of cell fixative (PBS containing 1% formaldehyde and 0.2% glutaraldehyde), and the mixture was allowed to stand at room temperature for 5 minutes and washed twice with PBS. To the mixture was added 100 μl of staining solution (PBS containing […] and 0.4 mg/ml X-gal), and the mixture was allowed to stand at 37° C. for 50 minutes and washed twice with PBS. The number of blue cells was counted by microscope and defined as the number of cells infected with HIV-1. According to this method, inhibition rate on HIV-1 infection was determined.

T1 sequence (P51681 whole entry): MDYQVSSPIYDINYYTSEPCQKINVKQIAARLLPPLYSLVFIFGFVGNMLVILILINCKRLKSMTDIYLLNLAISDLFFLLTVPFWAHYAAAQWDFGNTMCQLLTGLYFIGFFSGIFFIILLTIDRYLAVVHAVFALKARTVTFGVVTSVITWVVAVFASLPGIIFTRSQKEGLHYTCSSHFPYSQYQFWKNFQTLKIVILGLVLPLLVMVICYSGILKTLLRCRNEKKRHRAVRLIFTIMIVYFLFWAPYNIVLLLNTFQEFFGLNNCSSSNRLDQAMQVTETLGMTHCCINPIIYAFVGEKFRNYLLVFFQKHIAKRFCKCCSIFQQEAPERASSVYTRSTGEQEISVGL

What is called inhibition is the percentage by which the read-out fell short of the control. For `CCCOc1ccc(-c2ccc3c(c2)C=C(C(=O)Nc2ccc(CN(C)C4CCOCC4)cc2)CCS3(=O)=O)cc1` [Compound 29, N-[4-[N-methyl-N-(tetrahydropyran-4-yl)aminomethyl]phenyl]-7-(4-propoxyphenyl)-1,1-dioxo-2,3-dihydro-1-benzothiepine-4-carboxamide], the inhibition at 1 µM on human CCR5 was determined as 100%. Further, the “Inhibition Rate (HIV-1 infection)” value in the assay on HIV-1 BA-L came to 91%.

Consider `CCCOCCOc1ccc(-c2ccc3c(c2)C=C(C(=O)Nc2ccc(CN(C)C4CCOCC4)cc2)CCS3(=O)=O)cc1` [Compound 97, N-[4-[[N-methyl-N-(tetrahydropyran-4-yl)amino]methyl]phenyl]-7-[4-(2-propoxyethoxy)phenyl]-1,1-dioxo-2,3-dihydro-1-benzothiepine-4-carboxamide], for which the inhibition at 1 µM on human CCR5 turned out to be 92%. The “Inhibition Rate (HIV-1 infection)” value in the assay on HIV-1 BA-L is reported as 87%.
